In the test the target is DNA damage-binding protein 1/Protein cereblon (Homo sapiens, UniProt Q96SW2). Description: Not found.
Source text: Not found

Each structure is given as a SMILES string. pIC50: −log10 of the molar value.

Chain of DNA damage-binding protein 1/Protein cereblon (Q16531 whole entry): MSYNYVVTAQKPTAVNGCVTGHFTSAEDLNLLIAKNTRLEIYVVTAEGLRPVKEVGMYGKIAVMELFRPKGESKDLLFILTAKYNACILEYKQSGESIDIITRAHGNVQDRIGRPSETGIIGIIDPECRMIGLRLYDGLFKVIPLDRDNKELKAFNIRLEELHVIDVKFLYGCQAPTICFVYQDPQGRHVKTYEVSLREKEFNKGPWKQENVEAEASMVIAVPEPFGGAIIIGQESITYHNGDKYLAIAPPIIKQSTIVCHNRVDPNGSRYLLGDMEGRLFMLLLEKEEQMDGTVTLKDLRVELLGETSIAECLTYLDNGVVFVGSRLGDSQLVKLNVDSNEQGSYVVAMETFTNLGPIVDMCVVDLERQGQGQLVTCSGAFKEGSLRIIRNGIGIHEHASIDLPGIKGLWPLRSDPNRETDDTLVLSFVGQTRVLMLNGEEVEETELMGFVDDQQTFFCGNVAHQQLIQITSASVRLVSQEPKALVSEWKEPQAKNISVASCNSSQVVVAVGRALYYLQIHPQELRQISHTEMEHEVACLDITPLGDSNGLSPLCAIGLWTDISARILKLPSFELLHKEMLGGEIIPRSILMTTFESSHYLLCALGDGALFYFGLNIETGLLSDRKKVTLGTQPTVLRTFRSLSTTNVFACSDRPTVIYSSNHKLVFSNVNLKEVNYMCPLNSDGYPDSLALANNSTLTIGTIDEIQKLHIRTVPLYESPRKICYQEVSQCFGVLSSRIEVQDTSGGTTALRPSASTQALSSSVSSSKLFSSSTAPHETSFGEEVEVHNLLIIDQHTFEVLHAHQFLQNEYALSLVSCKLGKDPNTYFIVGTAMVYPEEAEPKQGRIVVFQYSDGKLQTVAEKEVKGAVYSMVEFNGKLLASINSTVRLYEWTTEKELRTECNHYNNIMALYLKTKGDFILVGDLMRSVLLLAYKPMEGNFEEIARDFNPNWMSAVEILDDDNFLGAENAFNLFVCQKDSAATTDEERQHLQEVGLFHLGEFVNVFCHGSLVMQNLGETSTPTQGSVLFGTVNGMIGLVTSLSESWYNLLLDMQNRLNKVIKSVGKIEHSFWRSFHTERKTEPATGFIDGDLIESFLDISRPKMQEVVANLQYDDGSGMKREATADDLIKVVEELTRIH
Chain of DNA damage-binding protein 1/Protein cereblon (Q96SW2 whole entry): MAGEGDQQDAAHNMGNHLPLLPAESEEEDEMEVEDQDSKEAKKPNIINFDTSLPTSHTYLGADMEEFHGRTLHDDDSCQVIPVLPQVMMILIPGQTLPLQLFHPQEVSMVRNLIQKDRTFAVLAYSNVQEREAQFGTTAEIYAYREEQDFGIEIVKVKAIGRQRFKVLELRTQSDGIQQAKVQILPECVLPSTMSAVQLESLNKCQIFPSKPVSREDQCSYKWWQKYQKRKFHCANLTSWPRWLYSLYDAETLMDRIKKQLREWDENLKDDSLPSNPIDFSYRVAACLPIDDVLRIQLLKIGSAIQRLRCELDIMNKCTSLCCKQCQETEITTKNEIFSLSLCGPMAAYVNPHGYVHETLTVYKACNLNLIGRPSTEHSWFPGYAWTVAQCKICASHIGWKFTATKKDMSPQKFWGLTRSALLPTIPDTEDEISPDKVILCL

What is called pIC50 is the negative decadic logarithm of the IC50, by convention in mol/L. The low end stands for a large IC50, the high end for a small IC50. The compound `O=C1CC[C@H](N2Cc3c(ccc4c3OCC43CCN(Cc4ccc5cn[nH]c5c4)CC3(F)F)C2=O)C(=O)N1` (some centres not stated) [US20250215012, Example B33] showed a pIC50 of 6.30 to 7.00.

`Cn1ncc2ccc(CN3CCC4(COc5c4ccc4c5CN([C@H]5CCC(=O)NC5=O)C4=O)C(F)(F)C3)cc21` (some centres not stated) [US20250215012, Example B34] gave a pIC50 of 6.30 to 7.00.

The record behind these values is BindingDB's records for patent US20250215012 (University of Michigan, 2025).
